Experimental findings from BindingDB's records for doi:10.7270/Q2TX3CTT (Broad Institute, 2010) are described below.

Where a name gives a salt, the structure may show the parent alone.

What is called EC50 is the midpoint of the concentration-response curve. A high value points to weaker potency.

The target of this assay is Glycogen synthase kinase-3 beta (Homo sapiens, UniProt P49841). Description: GSK3beta kinase inhibitor potency, dose response, biochemical, luminescence, cell-free homogeneous, retest (AID 434954).
Chain of Glycogen synthase kinase-3 beta (P49841 whole entry): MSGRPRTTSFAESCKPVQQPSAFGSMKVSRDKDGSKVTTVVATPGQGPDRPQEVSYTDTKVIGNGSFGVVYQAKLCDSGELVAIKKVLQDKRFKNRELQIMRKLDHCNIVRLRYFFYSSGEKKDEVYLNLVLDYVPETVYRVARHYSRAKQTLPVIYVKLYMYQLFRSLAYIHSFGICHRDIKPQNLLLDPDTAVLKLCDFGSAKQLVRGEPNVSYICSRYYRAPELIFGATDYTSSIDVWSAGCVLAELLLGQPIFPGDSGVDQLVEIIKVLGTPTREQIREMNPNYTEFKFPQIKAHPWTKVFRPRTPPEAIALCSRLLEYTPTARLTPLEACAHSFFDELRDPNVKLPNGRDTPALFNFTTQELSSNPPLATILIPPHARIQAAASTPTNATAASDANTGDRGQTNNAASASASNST
Consider `O=c1c(O)c(-c2ccc(O)c(O)c2)oc2cc(O)cc(O)c12` [2-(3,4-dihydroxyphenyl)-3,5,7-trihydroxy-chromone;hydrate], for which the EC50 came out at 10.1 µM.

In turn, `CSc1ncc(C(=O)Nc2ccccc2C)c(C)n1` came in with an EC50 of more than 300 µM.

In the case of `CSCCC(C(=O)NCc1cccs1)N1C(=O)c2ccccc2C1=O` (centres undefined) [SMR000150898], the EC50 is more than 300 µM.

The molecule `O=C(Oc1ccc(Cl)cc1)N1CCCCC1` [(4-chlorophenyl) piperidine-1-carboxylate] registered an EC50 of more than 300 µM.

Turning to `Cc1ccc(-c2nn(-c3ccccc3)cc2C=Nn2c(-c3ccncc3)n[nH]c2=S)cc1` [4-[[3-(4-methylphenyl)-1-phenyl-4-pyrazolyl]methylideneamino]-3-pyridin-4-yl-1H-1,2,4-triazole-5-thione], the EC50 was more than 300 µM.

Take `Cc1ccc(C(=O)/[O+]=N/[CH-]c2ccc(N3CCCCC3)c([N+](=O)[O-])c2)cc1` [[(3-nitro-4-piperidin-1-ylphenyl)methylideneamino] 4-methylbenzoate]: the EC50 was more than 300 µM.

In the case of `COC(=O)c1ccc(O)cc1`, the EC50 was more than 300 µM.

Consider `CCOC(=O)N1CCC(NC(=O)c2cc3sccc3n2CC)CC1` [MLS000093129], for which the EC50 is more than 300 µM.

`CC1(C)CC2CC(C)(CN2S(=O)(=O)c2ccc(C(=O)Nc3ccc(Cl)c(S(=O)(=O)N4CCOCC4)c3)cc2)C1` (centres undefined) [N-[4-chloro-3-(4-morpholinylsulfonyl)phenyl]-4-[(3,3,5-trimethyl-7-azabicyclo[3.2.1]octan-7-yl)sulfonyl]benzamide] registered an EC50 of more than 300 µM.

`Fc1cccc(CN=Nc2ncnc3nc[nH]c23)c1` registered an EC50 of 11.9 µM.

The molecule `COc1ccc(OC)c(C(=O)c2coc3ccc(OCC(=O)O)cc23)c1` [SMR000135205] gave an EC50 of more than 300 µM.

For the molecule `N#Cc1c(Cl)nc(-c2ccncc2)nc1-c1ccccc1` [SMR000549420], the EC50 stood at 15.2 µM.

As for `CNc1nc2c(N)ncnc2n1[C@H]1O[C@@H](CO)[C@H](O)[C@@H]1O` [(2S,3S,4R,5S)-2-[6-amino-8-(methylamino)purin-9-yl]-5-(hydroxymethyl)oxolane-3,4-diol], the EC50 was more than 300 µM.

On to `COc1ccc(Oc2c(C)oc3c(CN(C)C)c(O)ccc3c2=O)cc1`, for which the EC50 is more than 300 µM.

`Cc1nnc(SCC(=O)Nc2ccc(Cl)cn2)[nH]c1=O` [N-(5-chloro-2-pyridinyl)-2-[(6-methyl-5-oxo-2H-1,2,4-triazin-3-yl)thio]acetamide] had an EC50 of 36.7 µM.

Consider `COC(=O)c1ccc(CSc2ccc3nnc(-c4ccc(F)cc4)n3n2)o1` [5-[[[3-(4-fluorophenyl)-[1,2,4]triazolo[4,3-b]pyridazin-6-yl]thio]methyl]-2-furancarboxylic acid methyl ester], for which it took 4.59 µM to reach a half-maximal effect (EC50).

`CCN(CC)Cc1c(O)ccc2occ(C(=O)c3ccc(OC)cc3)c12` [[4-(diethylaminomethyl)-5-oxidanyl-1-benzofuran-3-yl]-(4-methoxyphenyl)methanone]: the EC50 is more than 300 µM.

`O=C(NCC(c1ccco1)N1CCN(c2ccc(F)cc2)CC1)c1ccc2c(c1)OCO2` (centres undefined) [N-[2-[4-(4-fluorophenyl)-1-piperazinyl]-2-(2-furanyl)ethyl]-1,3-benzodioxole-5-carboxamide] returned an EC50 of more than 300 µM.

The molecule `CC1(C)CC(=O)C=C(Nc2cccc(O)c2)C1` [MLS000108953] displayed an EC50 of more than 300 µM.

On to `COc1ccc(CNCCC(c2ccc(F)cc2)c2ccc(OC)cc2)cc1` (centres undefined) [3-(4-fluorophenyl)-3-(4-methoxyphenyl)-N-[(4-methoxyphenyl)methyl]propan-1-amine], for which the EC50 was more than 300 µM.

`O=C1NC(c2ccncc2)Nc2sc3c(c21)CCCC3` (centres undefined) returned a 50% effective concentration (EC50) of more than 300 µM.

In turn, `N#Cc1c(N)n(-c2cccc(O)c2)c2nc3ccccc3nc12` [SMR000413688] registered a concentration giving a half-maximal response (EC50) of more than 300 µM.

Consider `O=C(c1ccc(Cl)nc1)N1CCN(C/C=C/c2ccccc2)CC1` [SMR000352615], for which the EC50 was more than 300 µM.

In the case of `Clc1cccc(CNc2nc(-c3cccnc3)nc3ccccc23)c1` [N-[(3-chlorophenyl)methyl]-2-(3-pyridinyl)-4-quinazolinamine], the EC50 was more than 300 µM.

In turn, `CN1CCN(/N=C2\C(=O)Nc3ccc([N+](=O)[O-])cc32)CC1` [SMR000347605] gave an EC50 of 6.11 µM.

As for `Cc1nnc2n(-c3ccccc3)c(=O)c3c4c(sc3n12)CC(C)CC4` (centres undefined) [MLS000030539], the EC50 is more than 300 µM.

The molecule `Cc1ccc(CSc2ccc(-c3cccs3)nn2)cc1` [3-[(4-methylphenyl)methylsulfanyl]-6-thiophen-2-ylpyridazine] showed an EC50 of more than 300 µM.

`CN1CCN(C(=O)Cn2ncc3c([nH]c4ccccc43)c2=O)CC1` [3-[2-(4-methylpiperazin-1-yl)-2-oxidanylidene-ethyl]-2H-pyridazino[4,5-b]indol-4-one] displayed an EC50 of more than 300 µM.

As to `CN(C)Cc1c(O)ccc2c3c(c(=O)oc12)CCCCC3` [4-Dimethylaminomethyl-3-hydroxy-8,9,10,11-tetrahydro-7H-cyclohepta[c]chromen-6-one], the EC50 was determined as 78.8 µM.

Turning to `COc1ccc2cc(C(=O)C3CCCN(C(=O)c4sc(C)nc4C)C3)ccc2c1` (centres undefined) [SMR000653741], the EC50 was more than 300 µM.

The molecule `CCNc1nc(N)c(C(=C(C#N)C#N)c2ccccc2)s1` had an EC50 of more than 300 µM.

In turn, `CCN(CC)C(=O)COC(=O)c1ccc(O)cc1` [[2-(diethylamino)-2-oxoethyl] 4-hydroxybenzoate] displayed an EC50 of more than 300 µM.

Molecule `CCOC(=O)c1cnc2ccc(OC)cc2c1Nc1ccc2c(c1)OCCO2` [SMR000196288] returned an EC50 of 16.7 µM.

As to `COc1cccc(-n2sc3c(c2=S)-c2cc(OC)ccc2NC3(C)C)c1`, the EC50 is more than 300 µM.

Regarding `Cc1ccc(OCC(=O)N/N=C/c2ccc(O)cc2)c([N+](=O)[O-])c1` [2-(4-methyl-2-nitro-phenoxy)-N'-[(4-oxidanylidenecyclohexa-2,5-dien-1-ylidene)methyl]ethanehydrazide], the EC50 came to 7.18 µM.

For `O=C(NCCCN1CCCC1=O)c1ccc2c(c1)NC(=O)c1ccccc1S2` [MLS000522698], the EC50 is more than 300 µM.

In turn, `COc1cc(C=C2SC(Nc3ccc(O)cc3)=NC2=O)cc(OC)c1O` [MLS000715043] displayed an EC50 of more than 300 µM.

For the molecule `CCOC(=O)c1cnc2ccc(Cl)cc2c1N1CCN(C)CC1` [6-chloro-4-(4-methyl-1-piperazinyl)-3-quinolinecarboxylic acid ethyl ester], the response was half-maximal at 14.8 µM (EC50).

`CCOc1ccccc1C=NNC(=O)c1nnn(-c2nonc2N)c1CN1CCCC1` [1-(4-amino-1,2,5-oxadiazol-3-yl)-N-[(2-ethoxyphenyl)methylideneamino]-5-(pyrrolidin-1-ylmethyl)triazole-4-carboxamide] had an EC50 of 1.06 µM.

`Cc1ccc(NC(=O)C2CCN(S(=O)(=O)c3ccc4c(c3)NC(=O)C(C)S4)CC2)c(Cl)c1` (centres undefined) [SMR000630224] had an EC50 of more than 300 µM.

In the case of `Nc1nonc1-n1nnc(C(=O)NN=Cc2ccccn2)c1CNc1ccccc1` [1-(4-amino-1,2,5-oxadiazol-3-yl)-5-(anilinomethyl)-N-(2-pyridinylmethylideneamino)-4-triazolecarboxamide], the EC50 is more than 300 µM.

`COC(=O)CSc1ncnc2c1sc1nc(N3CCOCC3)c3c(c12)CCCC3` [MLS000535174] yielded an EC50 of more than 300 µM.

Molecule `CN(C)CCc1cc2c(c3c1ccc1ccccc13)OCO2` [N,N-dimethyl-2-(5-naphtho[2,1-g][1,3]benzodioxolyl)ethanamine;hydrochloride] came in with an EC50 of 25.9 µM.

For the molecule `Cc1ncc(C=C2C(=O)Nc3ccccc32)[nH]1` [3-[(Z)-(2-methyl-1H-imidazol-4-yl)methylidene]-1H-indol-2-one], the EC50 was more than 300 µM.

`Cc1nnc(SCC(=O)N2CCC(C(=O)Nc3nccs3)CC2)n1Cc1ccccc1` displayed an EC50 of 36.6 µM.

As for `COc1cccc(Nc2ncc(C#N)c(N)n2)c1` [MLS000858965], the EC50 stood at 14.3 µM.

`Cc1ccc2c(c1)cc1c(=O)n(CC(=O)NCCN3CCCC3)nc(C)n12` gave an EC50 of more than 300 µM.

As for `Cc1ccc(C(=O)Nc2ccc(S(=O)(=O)NCc3ccco3)cc2)cc1` [SMR000123393], the EC50 was more than 300 µM.

Take `COc1ccc(OC)c(-c2cc(-c3cccnc3)nc(N)c2C#N)c1` [2-amino-4-(2,5-dimethoxyphenyl)-6-pyridin-3-ylpyridine-3-carbonitrile]: the EC50 is more than 300 µM.

As to `COc1cccc(C(=O)N/N=C/c2ccc(Oc3ccc([N+](=O)[O-])cn3)c(OC)c2)c1` [3-methoxy-N-[[3-methoxy-4-(5-nitropyridin-2-yl)oxyphenyl]methylideneamino]benzamide], the EC50 was more than 300 µM.

In turn, `Cc1ccc(-c2nn(-c3ccccc3)cc2C=Nn2c(-c3cccs3)n[nH]c2=S)cc1` [4-({[3-(4-methylphenyl)-1-phenyl-1H-pyrazol-4-yl]methylene}amino)-5-(2-thienyl)-2,4-dihydro-3H-1,2,4-triazole-3-thione] came in with an EC50 of more than 300 µM.

`COc1cccc2c1cc1c(=O)n(CC(=O)NCCCN3CCCCC3)nc(C)n12` [2-(9-methoxy-4-methyl-1-oxo-[1,2,4]triazino[4,5-a]indol-2-yl)-N-[3-(1-piperidinyl)propyl]acetamide] returned an EC50 of more than 300 µM.

Take `Cc1ccccc1NC(=O)Nc1ccccn1` [1-(2-methylphenyl)-3-pyridin-2-ylurea]: the EC50 was more than 300 µM.

`CNc1nc(N)c([N+](=O)[O-])c(NC2CCCCC2)n1` [4-N-cyclohexyl-2-N-methyl-5-nitropyrimidine-2,4,6-triamine]: the EC50 worked out at 7.52 µM.

`Cc1cc(C)n2nc(C(=O)OCC(=O)NC(=O)c3ccccc3)nc2n1` [SMR000716574] registered an EC50 of more than 300 µM.

Molecule `Nc1ncnc2c1ccn2[C@@H]1O[C@H](CO)[C@@H](O)[C@H]1O` ['2-(4-AMINO-PYRROLO[2,3-D]PYRIMIDIN-7-YL)-5-HYDROXYMETHYL-TETRAHYDRO-FURAN-3,4-DIOL] came in with an EC50 of more than 300 µM.

`COc1cc(CN=Nc2ccc(C(F)(F)F)cn2)ccc1O` [(4E)-2-methoxy-4-[[[5-(trifluoromethyl)-2-pyridinyl]hydrazo]methylidene]-1-cyclohexa-2,5-dienone] yielded an EC50 of 10.1 µM.

As to `CCOc1ccc(N2C(=O)C(=Nc3ccccc3O)C(Cl)C2=O)cc1` (centres undefined) [SMR000124402], the EC50 was more than 300 µM.

`CCN1CCN(C(=O)c2ccc3c(c2)N(Cc2ccc(F)cc2)C(=O)c2ccccc2[S+]3[O-])CC1` (centres undefined) [MLS000117749] displayed an EC50 of more than 300 µM.
